Experiment [1] concerns the target PTPN11-E76K mutant enzyme (Homo sapiens (Human), UniProt Q06124, E76K). The experiment is described as follows: PTPN11 enzymatic assay (DiFMUP phosphatase activity). Format: biochemical. The conditions noted are these: full length PTPN11-E76K mutant, 250 pM enzyme, DiFMUP 50 μM substrate. The protocol:
Reaction was initiated by addition of DiFMUP (50 μM) at room temperature in 384-well black plate with a final reaction volume of 20 uL in assay buffer. After 1 hour, DiFMUP fluorescence signal was measured (Ex:340/Em:460) using Envision plate reader. Dose-response curves were analyzed using IC50 regression curve fitting (GeneData Screener). Curves were normalized to a high controls without inhibitor, and low controls without enzyme.

For the next experiment, the system named is KYSE-520 cells. In words: pERK AlphaScreen. Format: cell-based. The conditions noted are these: Homo sapiens. The procedure:
KYSE-520 cells (10 k cells/well) were grown in 384-well plate in 20 uL of medium (RPMI-1640, without phenol red, containing 10% FBS) at 37° C. with 5% CO2 overnight. DMSO (control) or increasing concentrations of compounds were diluted in medium, added to the 384-well plate (5 uL/well, final DMSO concentration of 1%), and cells were then incubated with compounds for 2 hr. Phospho-ERK levels were measured using phospho-ERK1/2 AlphaScreen SureFire (PerkinElmer, TGRESB10K) following manufacturer's recommendations. Dose-response curves were analyzed using IC50 regression curve fitting (GeneData Screener). Curves were normalized to a high control without inhibitor (DMSO only), and low control (1 μM selumetinib).
On the technique in general: Bead proximity is the source of the signal in Alpha formats.

Where [2] appears, read: KYSE-520 cells, 2 hr incubation, phospho-ERK1/2 AlphaScreen SureFire, read-out: pERK Avg IC50.
[3] abbreviates: KYSE-520, 2 h, read-out: pERK Avg IC50 (nM).

Like-named read-outs stand apart in the source and are kept apart here.

In general, IC50 refers to the concentration that gives 50% inhibition.

Chain of PTPN11-E76K mutant enzyme (Q06124 whole entry E76K): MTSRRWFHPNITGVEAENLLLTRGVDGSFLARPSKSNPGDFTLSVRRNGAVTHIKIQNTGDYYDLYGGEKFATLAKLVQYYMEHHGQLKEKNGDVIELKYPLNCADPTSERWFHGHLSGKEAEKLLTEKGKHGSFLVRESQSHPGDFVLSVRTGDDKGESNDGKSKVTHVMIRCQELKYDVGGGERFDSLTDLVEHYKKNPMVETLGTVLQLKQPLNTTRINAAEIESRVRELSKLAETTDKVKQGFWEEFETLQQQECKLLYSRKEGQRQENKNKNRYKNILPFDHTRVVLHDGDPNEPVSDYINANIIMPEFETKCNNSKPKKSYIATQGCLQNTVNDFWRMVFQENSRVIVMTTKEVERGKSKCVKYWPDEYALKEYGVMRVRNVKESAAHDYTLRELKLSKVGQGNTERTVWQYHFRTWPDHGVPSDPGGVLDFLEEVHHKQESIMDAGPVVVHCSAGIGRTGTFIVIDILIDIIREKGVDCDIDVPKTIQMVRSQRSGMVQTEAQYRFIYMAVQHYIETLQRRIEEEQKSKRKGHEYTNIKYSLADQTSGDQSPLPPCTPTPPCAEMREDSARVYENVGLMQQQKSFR

In the case of `CCNc1nccc(-c2n[nH]c3nc(N4CCC5(CC4)CO[C@@H](C)[C@H]5N)c(Cl)nc23)c1Cl` [Example 19, (3S,4S)-8-(5-Chloro-3-(3-chloro-2-(ethylamino)pyridin-4-yl)-1H-pyrazolo[3,4-b]pyrazin-6-yl)-3-methyl-2-oxa-8-azaspiro[4.5]decan-4-amine], the IC50 in experiment [1] was determined as 6 nM; in the experiment with KYSE-520 cells (setting [2]), 1 nM.
For the molecule `CCNc1nccc(-c2n[nH]c3nc(N4CCC5(CC4)CO[C@@H](C)[C@H]5N)c(C)nc23)c1Cl` [Example 18, (3S,4S)-8-(3-(3-chloro-2-(ethylamino)pyridin-4-yl)-5-methyl-1H-pyrazolo[3,4-b]pyrazin-6-yl)-3-methyl-2-oxa-8-azaspiro[4.5]decan-4-amine 2,2,2-trifluoroacetate], the results for the IC50 (in experiment [1]; with KYSE-520 cells (setting [3])) were 9 nM and 20 nM, respectively.
`Cc1nc2c(-c3cccc(Cl)c3Cl)n[nH]c2nc1N1CCC(C)(N)CC1` [Example 1, 1-(3-(2,3-dichlorophenyl)-5-methyl-1H-pyrazolo[3,4-b]pyrazin-6-yl)-4-methylpiperidin-4-amine]: the IC50 in experiment [1] amounted to 68 nM; in the experiment with KYSE-520 cells (setting [2]), 93 nM.
For `CNc1nccc(-c2n[nH]c3nc(N4CCC(C)(N)CC4)c(CO)nc23)c1Cl` [Example 11, (6-(4-amino-4-methylpiperidin-1-yl)-3-(3-chloro-2-(methylamino)pyridin-4-yl)-1H-pyrazolo[3,4-b]pyrazin-5-yl)methanol], in experiment [1], the IC50 is 17 nM.
`CC1(N)CCN(c2nc3[nH]nc(-c4cccc(Cl)c4Cl)c3nc2O)CC1` [Example 3, 6-(4-amino-4-methylpiperidin-1-yl)-3-(2,3-dichlorophenyl)-1H-pyrazolo[3,4-b]pyrazin-5-ol]: the concentration for half-maximal inhibition (IC50) in experiment [1] amounted to 960 nM; in the experiment with KYSE-520 cells (setting [2]) it was 2000 nM.
As to `CC1(N)CCN(c2nc3[nH]nc(-c4cccc(Cl)c4Cl)c3nc2Br)CC1` [Example 2, 1-(5-bromo-3-(2,3-dichlorophenyl)-1H-pyrazolo[3,4-b]pyrazin-6-yl)-4-methylpiperidin-4-amine], the values for the IC50 (in experiment [1]; in the experiment with KYSE-520 cells (setting [2])) were 317 nM and 580 nM, respectively.
On to `COc1nc2c(-c3cccc(Cl)c3Cl)n[nH]c2nc1N1CCC(C)(N)CC1` [Example 6, 1-(3-(2,3-dichlorophenyl)-5-methoxy-1H-pyrazolo[3,4-b]pyrazin-6-yl)-4-methylpiperidin-4-amine bis(2,2,2-trifluoroacetate)], for which the figures for the IC50 (in experiment [1]; in the experiment on KYSE-520 cells (setting [3])) were 950 nM and 3820 nM, respectively.
For the molecule `CC1(N)CCN(c2nc3[nH]nc(-c4cccc(Cl)c4Cl)c3nc2Cl)CC1` [Example 10, 1-(5-chloro-3-(2,3-dichlorophenyl)-1H-pyrazolo[3,4-b]pyrazin-6-yl)-4-methylpiperidin-4-amine], the 50% inhibitory concentration (IC50) in experiment [1] was determined as 277 nM; in the experiment on KYSE-520 cells (setting [2]), 502 nM.
In the same order, the values of `C[C@@H]1OCC2(CCN(c3nc4[nH]nc(-c5ccnc(OC6COC6)c5Cl)c4nc3CO)CC2)[C@@H]1N` [Example 22, (6-((3S,4S)-4-amino-3-methyl-2-oxa-8-azaspiro[4.5]decan-8-yl)-3-(3-chloro-2-(oxetan-3-yloxy)pyridin-4-yl)-1H-pyrazolo[3,4-b]pyrazin-5-yl)methanol] are 48 nM and 3370 nM.
In the same order, the values of `CC1(N)CCN(c2nc3[nH]nc(-c4cccc(Cl)c4Cl)c3nc2C=O)CC1` [Example 9, 6-(4-amino-4-methylpiperidin-1-yl)-3-(2,3-dichlorophenyl)-1H-pyrazolo[3,4-b]pyrazine-5-carbaldehyde] are 190 nM and 647 nM.
As for `CC1(N)CCN(c2nc3[nH]nc(-c4cccc(Cl)c4Cl)c3nc2C(N)=O)CC1` [Example 8, 6-(4-amino-4-methylpiperidin-1-yl)-3-(2,3-dichlorophenyl)-1H-pyrazolo[3,4-b]pyrazine-5-carboxamide], half-maximal inhibition in experiment [1] (IC50) was put at 90 nM.
As for `CC1(N)CCN(c2nc3[nH]nc(-c4cccc(Cl)c4Cl)c3nc2C(=O)NO)CC1` [Example 13, 6-(4-Amino-4-methylpiperidin-1-yl)-3-(2,3-dichlorophenyl)-N-hydroxy-1H-pyrazolo[3,4-b]pyrazine-5-carboxamide], the 50% inhibitory concentration (IC50) in experiment [1] worked out at 224 nM; in the experiment on KYSE-520 cells (setting [2]), 704 nM.
In the same order, the values of `CC(O)c1nc2c(-c3cccc(Cl)c3Cl)n[nH]c2nc1N1CCC(C)(N)CC1` (stereo not drawn) [Example 12, 1-(6-(4-amino-4-methylpiperidin-1-yl)-3-(2,3-dichlorophenyl)-1H-pyrazolo[3,4-b]pyrazin-5-yl)ethanol] are 372 nM and 326 nM.
Take `CC1(N)CCN(c2nc3[nH]nc(-c4cccc(Cl)c4Cl)c3nc2C(F)F)CC1` [Example 14, 1-(3-(2,3-dichlorophenyl)-5-(difluoromethyl)-1H-pyrazolo[3,4-b]pyrazin-6-yl)-4-methylpiperidin-4-amine]: the figures for the IC50 (in experiment [1]; with KYSE-520 cells (setting [2])) were 22 nM and 36 nM, respectively.
In the same order, the values of `CC1(N)CCN(c2nc3[nH]nc(-c4cccc(Cl)c4Cl)c3nc2CO)CC1` [Example 7, (6-(4-amino-4-methylpiperidin-1-yl)-3-(2,3-dichlorophenyl)-1H-pyrazolo[3,4-b]pyrazin-5-yl)methanol] are 19 nM and 97 nM.
In the case of `CCNc1nccc(-c2n[nH]c3nc(N4CCC5(CC4)CO[C@@H](C)[C@H]5N)c(CO)nc23)c1Cl` [Example 17, (6-((3S,4S)-4-amino-3-methyl-2-oxa-8-azaspiro[4.5]decan-8-yl)-3-(3-chloro-2-(ethylamino)pyridin-4-yl)-1H-pyrazolo[3,4-b]pyrazin-5-yl)methanol], in the experiment with KYSE-520 cells (setting [2]), the half-inhibitory concentration (IC50) was found to be 9 nM.
For the molecule `CNc1nccc(-c2n[nH]c3nc(N4CCC5(CC4)CO[C@@H](C)[C@H]5N)c(CO)nc23)c1Cl` [Example 20, (6-((3S,4S)-4-Amino-3-methyl-2-oxa-8-azaspiro[4.5]decan-8-yl)-3-(3-chloro-2-(methylamino)pyridin-4-yl)-1H-pyrazolo[3,4-b]pyrazin-5-yl)methanol], the IC50 stood at 3 nM in experiment [1] and 2 nM in the experiment with KYSE-520 cells (setting [2]).
In experiment [1], `CC1(N)CCN(c2nc3[nH]nc(-c4cccc(Cl)c4Cl)c3nc2C#N)CC1` [Example 4, 6-(4-amino-4-methylpiperidin-1-yl)-3-(2,3-dichlorophenyl)-1H-pyrazolo[3,4-b]pyrazine-5-carbonitrile] gave an IC50 of 465 nM.
`C[C@@H]1OCC2(CCN(c3nc4[nH]nc(-c5cccc(OC6COC6)c5Cl)c4nc3CO)CC2)[C@@H]1N` [Example 21, (6-((3S,4S)-4-amino-3-methyl-2-oxa-8-azaspiro[4.5]decan-8-yl)-3-(2-chloro-3-(oxetan-3-yloxy)phenyl)-1H-pyrazolo[3,4-b]pyrazin-5-yl)methanol]: the IC50 in experiment [1] was 558 nM; in the experiment with KYSE-520 cells (setting [2]), 2710 nM.
Consider `CC1(N)CCN(c2nc3[nH]nc(-c4cccc(Cl)c4Cl)c3nc2-c2cc[nH]n2)CC1` [Example 5, 1-(3-(2,3-dichlorophenyl)-5-(1H-pyrazol-3-yl)-1H-pyrazolo[3,4-b]pyrazin-6-yl)-4-methylpiperidin-4-amine], for which the results for the IC50 (in experiment [1]; in the experiment with KYSE-520 cells (setting [2])) were 397 nM and 1970 nM, respectively.
With `C[C@@H]1OCC2(CCN(c3nc4[nH]nc(-c5cccc(Cl)c5Cl)c4nc3CO)CC2)[C@@H]1N` [Example 16, (6-((3S,4S)-4-amino-3-methyl-2-oxa-8-azaspiro[4.5]decan-8-yl)-3-(2,3-dichlorophenyl)-1H-pyrazolo[3,4-b]pyrazin-5-yl)methanol], the IC50 with KYSE-520 cells (setting [2]) is 2 nM.
In the case of `CC1(N)CCN(c2nc3[nH]nc(-c4cccc(Cl)c4Cl)c3nc2CF)CC1` [Example 15, 1-(3-(2,3-dichlorophenyl)-5-(fluoromethyl)-1H-pyrazolo[3,4-b]pyrazin-6-yl)-4-methylpiperidin-4-amine], the IC50 in experiment [1] came out at 1 nM; in the experiment with KYSE-520 cells (setting [2]), 0.4 nM.

These data come from US10954243B2, “Substituted heterocyclic inhibitors of PTPN11” (NAVIRE PHARMA, INC., priority 2018, dated 2021).
